Test results published in US20070213291A1, “Therapeutically useful synthetic oligonucleotides” (priority 1999, published 2007).

Assays:
Type in all cases: cell-based
[1] = test system: Jurkat human leukemia T cells; test: Inhibition of Jurkat human leukemia T cell proliferation (MTT reduction); conditions: for % INHIBITION of Jurkat human leukemia T cell proliferation: 100 μg/ml sequence, 48 h, 2.5×10^5 cells/ml
Procedure: Cells were seeded in 6 (1 ml/well), 24 (0.5 ml/well) or 96 (0.1 ml/well) well flat-bottom microplates and were maintained at 37° C. in a 5% CO2 atmosphere. Unless stated otherwise, 2.5×10^5 cells/ml were incubated with 0 μg/ml (control) and 100 μg/ml (treated) of 2 to 45 base sequences containing A, C, G and T for 48 h.
MTT was measured at a wavelength of 570 nm using a multiplate spectrophotometer reader (ELX800, Bio-TEK Instruments Inc., Winooski, Vt.).
Jurkat human leukemia T cells are an atypical multi-drug resistant human suspension tumor cell model.

[2] = test system: THP-1 human acute monocytic leukemia cells; test: Cytokine production by THP-1 cells (ELISA); conditions: THP-1, 1×10^6 cells, 100 μg/ml, 48 h; for ↑ IL-12 (fold increase treated vs control cells): p70 complex and free p40
Procedure: Unless stated otherwise, 1×10^6 cells were incubated with 100 μg/ml of each of the sequences tested for 48 h at 37° C. in 5% CO2. Production of cytokines IL-6, IL-10, IL-12, IL-1beta and TNF-alpha was determined in pg/ml in 100 μl of culture supernatant using the appropriate commercial ELISA (BioSource, Camarillo Calif.). The IL-12 ELISA measures both IL-12 p70 complex and free p40 subunit. Results are expressed as the “fold” (×) increase in cytokine production by treated cells compared to control cells.
THP-1 human acute monocytic leukemia cells were incubated with 2, 3, 6, 9, 12, 14, 15 and 18 base GT sequences and production of the cyotkine IL-6 was determined (Table 35).
THP-1 human acute monocytic leukemia cells were incubated with 6 base GT, AG, CG, GG, AGT and CGT sequences and production of the cytokines IL-12 and IL-6 was determined (Table 36).
THP-1 human acute monocytic leukemia cells were incubated with 6 base GT sequences, having either an oxygen (phosphodiester) or a sulfur (phosphorothioate) as the nonbridging atom on the phosphate groups and production of the cytokine IL-12 was determined (Table 39).
THP-1 human acute monocytic leukemia cells were incubated with 6 base GT SEQ ID NO:25, having either an oxygen (phosphodiester) or a sulfur (phosphorothioate) as the nonbridging atom on the phosphate groups and production of the cytokine IL-12 was determined (Table 40).

[3] = test system: Jurkat human leukemia T cells; test: Cell cycle stage in Jurkat cells (propidium iodide flow cytometry); conditions: Jurkat, 24 h, 100 μg/ml
Procedure: Cell cycle stage was determined using a […]™ PLUS DNA commercial kit (Becton Dickinson). Briefly, nuclei from cells were obtained by dissolving the cell membrane in a nonionic detergent, eliminating the cell cytoskeleton and nuclear proteins with trypsin, digesting the cellular RNA with RNase and stabilizing the nuclear chromatin with spermine. Propidium iodide was added to the cell nuclei and their fluorescence was analyzed in a flow cytometer equipped with electronic doublet discrimination capability (FACSCalibur, Becton Dickinson, San Jose, Calif.). Accumulation of cells in G0/G1, early S (SE), mid S (SM), late S (SL) or G2/M phases of the cell cycle was analyzed using MODFIT LT software (Verity Software House Inc., Topsham, Mass.).
Exponentially growing Jurkat human leukemia T cells (Table 28) and MCF-7 human breast cancer cells (5×10^5 cells/ml) (Table 29) were incubated for 24 h with 2, 6, 15, 18, 27 and 45 base sequences containing A, C, G and T. The cells were collected and centrifuged and cell cycle stage was determined.
Jurkat human cell leukemia T cells (1×10^6 cells/ml) were incubated for 24 h with 6 base GT SEQ ID NO:25, conplementary 6 base AC SEQ ID NO:79 and 6 base GT SEQ ID NO:25+6 base AC SEQ ID NO:79. GT SEQ ID NO:25 and AC SEQ ID NO:79 were hybridized by mixing the oligonucleotides (1:1) and heating for 10 minutes at 65° C. As controls, GT SEQ ID NO:25 and AC SEQ ID NO:79 were heated for 10 minutes at 65° C. (Table 30).

Compound	↑ IL-6 (fold increase treated vs control cells) [2] [x]	↑ IL-12 (fold increase treated vs control cells) [2] [x]	% INHIBITION of Jurkat human leukemia T cell proliferation [1] [%]	other results
N.N.[Cl][Pt][Cl] [Cisplatin, reference compound]	–	–	–	% INHIBITION of Jurkat proliferation, Cisplatin 0.1 μg/ml ([1]; cisplatin 0.1 μg/ml, alone or with sequence at 1.0 μg/ml): 7%; % INHIBITION of Jurkat proliferation, Cisplatin 1.0 μg/ml ([1]; cisplatin 1.0 μg/ml, alone or with sequence at 1.0 μg/ml): 29%; % INHIBITION of Jurkat proliferation, Cisplatin 10.0 μg/ml ([1]; cisplatin 10.0 μg/ml, alone or with sequence at 1.0 μg/ml): 73%
AAAGAGGGGCATGACCCGGTGCGGGGGTTCTTGCACTCGGCATAG (unmodified DNA) [BCG A-1, reference compound]	2.6	1.9	6	% of cells in phase: G0/G1 [3]: 19.8%; % of cells in phase: G2/M [3]: 12.0%; % of cells in phase: SE [3]: 31.7%; % of cells in phase: SL [3]: 14.0%; % of cells in phase: SM [3]: 22.5%; Arrest (cell cycle) [3]: Mid SM
ACGAGACCACCATCGTCGAGGGCGCCGGTGACACCGACGCCATCG (unmodified DNA) [BCG A-6, reference compound]	3.9	2.1	21	–
ACGCCGACGTCGTCTGTGGTGGGGTGTCTACCGCCAACGCGACGG (unmodified DNA) [BCG M-3, reference compound]	2.5	1.6	22	–
CCGTGG [SEQ ID NO:34]	10.8	0.0	37	–
CGACTACAACGGCTGGGATATCAACACCCCGGCGTTCGAGTGGTA (unmodified DNA) [BCG ALPHA-1, reference compound]	2.1	1.1	10	–
CGGTGC [SEQ ID NO:38]	6.9	0.2	16	–
GAGTGA [SEQ ID NO:32]	5.8	1.8	24	–
GCCGAGAAGGTGCGCAACCTGCCGGCTGGCCACGGACTGAACGCT (unmodified DNA) [BCG A-7, reference compound]	–	0.5	4	–
GGAGGG (unmodified DNA) [SEQ ID NO:47]	–	–	14	–
GGGTCC [SEQ ID NO:35]	21.3	1.9	20	–
GGGTCT [SEQ ID NO:33]	3.1	1.2	15	–
GGGTGGG (unmodified DNA) [SEQ ID NO:63]	–	–	28	–
GGGTGGT (unmodified DNA) [SEQ ID NO:65]	–	–	48	–
GGGTTT [SEQ ID NO:40]	14.0	−1.2	31	–
GGTT (unmodified DNA) [SEQ ID NO:58]	–	–	37	–
GTGGGG [SEQ ID NO:48]	–	–	26	–
GTGT (unmodified DNA) [SEQ ID NO:54]	–	–	42	–

Compound	↑ IL-6 (fold increase treated vs control cells) [2] [x]	↑ IL-12 (fold increase treated vs control cells) [2] [x]	% INHIBITION of Jurkat human leukemia T cell proliferation [1] [%]	other results
GTGTGTGTG (chemistry not given here) [SEQ ID NO:12]	5.4	–	47	–
GTGTGTGTGTGTGTG (unmodified DNA) [SEQ ID NO:16]	2.6	–	58	–
GTGTGTGTGTGTGTGTGTGTG (unmodified DNA) [SEQ ID NO:20]	–	–	46	–
GTGTGTGTGTGTGTGTGTGTGTGT [SEQ ID NO:22]	–	–	56	–
GTGTGTGTGTGTGTGTGTGTGTGTGTG (DNA, backbone not given here; further chemistry not fully specified) [SEQ ID NO:1 phosphorothioate]	–	–	–	% of cells in phase: G0/G1 [3]: 33.7%; % of cells in phase: G2/M [3]: 24.5%; % of cells in phase: SE [3]: 17.6%; % of cells in phase: SL [3]: 11.0%; % of cells in phase: SM [3]: 13.2%; Arrest (cell cycle) [3]: None
TCTCTCTCTCTCTCTCTCTCTCTCTCT (unmodified DNA) [SEQ ID NO:6]	–	–	0	–
TGGGTGG (unmodified DNA) [SEQ ID NO:64]	–	–	55	–
TGTG (unmodified DNA) [SEQ ID NO:59]	–	–	52	–
TGTGTGTGT (unmodified DNA) [SEQ ID NO:11]	5.4	–	45	–
TGTGTGTGTGTGTG (chemistry not given here) [SEQ ID NO:15]	1.0	–	47	proliferation, cell cycle arrest and apoptosis of Jurkat T cells (summary in words) ([1]; M. phlei murA derived sequences): did not inhibit proliferation of, induce cell cycle arrest in or induce apoptosis of Jurkat T cells
TGTGTGTGTGTGTGTGTGTGT (unmodified DNA) [SEQ ID NO:19]	–	–	60	–
TGTGTGTGTGTGTGTGTGTGTGTG [SEQ ID NO:21]	–	–	54	–
TGTGTGTGTGTGTGTGTGTGTGTGTG (DNA TGTGTGTGTGTGTGTGTGTGTGTGTGT; unmodified DNA) [SEQ ID NO:5]	–	–	45	–
TGTT (unmodified DNA) [SEQ ID NO:57]	–	–	32	–
TTGG (unmodified DNA) [SEQ ID NO:55]	–	–	44	–
TTGT (unmodified DNA) [SEQ ID NO:53]	–	–	25	–
TTGTGG [SEQ ID NO:39]	6.6	0.0	35	% INHIBITION of Jurkat proliferation at suboptimal concentration ([1]; 5.0 μg/ml of each 6 base sequence, alone or two together): 4%
